Experimental data: paper PMC9977294, “A parasitic fungus employs mutated eIF4A to survive on rocaglate-synthesizing Aglaia plants” (eLife, 2023)
Several values for one entry are separate records, joined by “and”; a condition that tells them apart may be missing. Equal entries are not always repeated. Where two headings read alike, the source gives them in different places.

What was measured:
Experiment in all cases: Fluorescence polarization assay, FAM-labeled [AG]10 RNA and recombinant eIF4A
Assay type in all cases: binding
[1] = target: T1, H. sapiens eIF4A1 Phe163Gly (Homo sapiens, UniProt P60842, F163G)
T1 construct: His tag (N); made in house; host or cells: E. coli BL21 Star (DE3)
Protocol: (§1) The fluorescence polarization assay was performed as previously described ([Chen et al., 2021]). […] After incubation at room temperature for 30 min, the mixture was transferred to a black 384-well microplate (Corning), and the fluorescence polarization was measured by an Infinite F-200 PRO (Tecan). Under ADP + Pi conditions, 1 mM ADP (Fujifilm Wako Chemicals) and 1 mM Na2HPO4 were used as substitutes for AMP-PNP. The data were fitted to the Hill equation to calculate Kd values and visualized by Igor Pro v8.01 (WaveMetrics).

[2] = target: T2, H. sapiens eIF4A1 WT Phe163 (Homo sapiens, UniProt P60842); details: RocA 50 µM
T2 construct: His tag (N); made in house; host or cells: E. coli BL21 Star (DE3)
Protocol: as §1

[3] = target: T3, O. sinensis eIF4A His154Gly (Ophiocordyceps sinensis, UniProt A0A8H4LTQ8, H154G); details: for Kd: [AG]10 10 nM, compound 50 µM, read-out: Kd between eIF4A protein and RNA
T3 sequence (A0A8H4LTQ8 1-397 H154G): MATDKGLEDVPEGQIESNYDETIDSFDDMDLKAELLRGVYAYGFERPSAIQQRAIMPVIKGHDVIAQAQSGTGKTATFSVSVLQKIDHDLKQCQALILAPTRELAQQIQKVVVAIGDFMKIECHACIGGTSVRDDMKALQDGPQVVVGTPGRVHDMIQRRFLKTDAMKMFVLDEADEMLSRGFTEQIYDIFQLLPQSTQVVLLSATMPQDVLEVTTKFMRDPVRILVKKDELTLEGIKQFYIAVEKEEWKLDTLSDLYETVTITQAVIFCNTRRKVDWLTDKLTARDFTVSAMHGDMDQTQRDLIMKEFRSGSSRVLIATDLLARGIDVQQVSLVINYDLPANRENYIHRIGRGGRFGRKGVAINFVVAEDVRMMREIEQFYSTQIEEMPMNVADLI
Protocol: as §1

[4] = [AG]10, ADP + Pi, RocA 50 µM, protein 0.01 μM
[5] = [AG]10, ADP + Pi, RocA 50 µM, protein 0.05 μM
[6] = [AG]10, ADP + Pi, RocA 50 µM, protein 0.075 μM
[7] = [AG]10, ADP + Pi, RocA 50 µM, protein 0.1 μM
[8] = [AG]10, ADP + Pi, RocA 50 µM, protein 0.5 μM
[9] = [AG]10, ADP + Pi, RocA 50 µM, protein 0.75 μM
[10] = [AG]10, ADP + Pi, RocA 50 µM, protein 1 μM
[11] = [AG]10, ADP + Pi, RocA 50 µM, protein 5 μM
[12] = [AG]10, ADP + Pi, RocA 50 µM, protein 7.5 μM
[13] = [AG]10, ADP + Pi, RocA 50 µM, protein 10 μM
[14] = [AG]10, ADP + Pi, RocA 50 µM, protein 25 μM
[15] = [AG]10, ADP + Pi, RocA 50 µM, protein 50 μM
[16] = [AG]10 RNA, AMP-PNP, RocA, protein concentration 0.01 μM
[17] = [AG]10 RNA, AMP-PNP, RocA, protein concentration 0.05 μM
[18] = [AG]10 RNA, AMP-PNP, RocA, protein concentration 0.075 μM
[19] = [AG]10 RNA, AMP-PNP, RocA, protein concentration 0.1 μM
[20] = [AG]10 RNA, AMP-PNP, RocA, protein concentration 0.5 μM
[21] = [AG]10 RNA, AMP-PNP, RocA, protein concentration 0.75 μM
[22] = [AG]10 RNA, AMP-PNP, RocA, protein concentration 1 μM
[23] = [AG]10 RNA, AMP-PNP, RocA, protein concentration 5 μM
[24] = [AG]10 RNA, AMP-PNP, RocA, protein concentration 7.5 μM
[25] = [AG]10 RNA, AMP-PNP, RocA, protein concentration 10 μM
[26] = [AG]10 RNA, AMP-PNP, RocA, protein concentration 25 μM
[27] = [AG]10 RNA, AMP-PNP, RocA, protein concentration 50 μM

T1 sequence (P60842 whole entry F163G): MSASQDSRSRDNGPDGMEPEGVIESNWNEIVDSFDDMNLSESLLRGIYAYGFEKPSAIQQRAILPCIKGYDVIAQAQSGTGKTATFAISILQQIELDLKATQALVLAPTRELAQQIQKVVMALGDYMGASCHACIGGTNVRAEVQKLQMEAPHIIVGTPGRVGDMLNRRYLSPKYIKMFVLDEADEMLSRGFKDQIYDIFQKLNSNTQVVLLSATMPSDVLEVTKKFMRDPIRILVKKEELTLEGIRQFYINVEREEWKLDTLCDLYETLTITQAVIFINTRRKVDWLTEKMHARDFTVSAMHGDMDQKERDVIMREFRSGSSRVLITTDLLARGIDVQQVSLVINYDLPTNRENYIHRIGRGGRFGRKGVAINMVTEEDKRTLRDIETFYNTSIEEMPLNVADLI
T2 sequence (P60842 whole entry): as the sequence (P60842 whole entry F163G) above, with G163F counted along it

## COc1ccc([C@@]23Oc4cc(OC)cc(OC)c4[C@]2(O)[C@H](O)[C@H](C(=O)N(C)C)[C@H]3c2ccccc2)cc1 [RocA, rocaglamide A]
[1]; [4]
  fluorescence polarization, Mean: 0.04918
  fluorescence polarization, replicates: 0.1421 and 0.05191 and -0.04645
[1]; [5]
  fluorescence polarization, Mean: 0.02732
  fluorescence polarization, replicates: 0.2322 and -0.03005 and -0.1202
[1]; [6]
  fluorescence polarization, Mean: -0.02459
  fluorescence polarization, replicates: 0.06011 and -0.02186 and -0.112
[1]; [7]
  fluorescence polarization, Mean: -0.01913
  fluorescence polarization, replicates: -0.03005 and -0.01366 (2×)
[1]; [8]
  fluorescence polarization, Mean: -0.02459
  fluorescence polarization, replicates: 0.0765 and 0.04372 and -0.194
[1]; [9]
  fluorescence polarization, Mean: -0.02459
  fluorescence polarization, replicates: 0.1831 and -0.05465 and -0.2022
[1]; [10]
  fluorescence polarization, Mean: -0.01913
  fluorescence polarization, replicates: 0.1093 and -0.06284 and -0.1038
[1]; [11]
  fluorescence polarization, Mean: 0.224
  fluorescence polarization, replicates: 0.3634 and 0.224 and 0.0847
[1]; [12]
  fluorescence polarization, Mean: 0.1721
  fluorescence polarization, replicates: 0.3798 and 0.03552 and 0.1011
[1]; [13]
  fluorescence polarization, Mean: 0.276
  fluorescence polarization, replicates: 0.3962 and 0.1585 and 0.2732
[1]; [14]
  fluorescence polarization, Mean: 0.5137
  fluorescence polarization, replicates: 0.7404 and 0.5273 and 0.2732
[1]; [15]
  fluorescence polarization, Mean: 0.582
  fluorescence polarization, replicates: 0.7568 and 0.5437 and 0.4454
[1]; [16]
  Fluorescence polarization, Replicate 1-3: 0.04918 and -0.08197 and -0.1475
  fluorescence polarization, Mean: -0.06011
[1]; [17]
  Fluorescence polarization, Replicate 1-3: 0.1311 and -0.09016 and -0.09836
  fluorescence polarization, Mean: -0.01913
[1]; [18]
  Fluorescence polarization, Replicate 1-3: -0.04098 and -0.1393 and -0.09836
  fluorescence polarization, Mean: -0.0929
[1]; [19]
  Fluorescence polarization, Replicate 1-3: 0.07377 and 0.02459 and -0.06557
  fluorescence polarization, Mean: 0.01093
[1]; [20]
  Fluorescence polarization, Replicate 1-3: 0.5984 and 0.4918 and 0.4016
  fluorescence polarization, Mean: 0.4973
[1]; [21]
  Fluorescence polarization, Replicate 1-3: 0.4508 and 0.2049 and 0.1148
  fluorescence polarization, Mean: 0.2568
[1]; [22]
  Fluorescence polarization, Replicate 1-3: 0.5082 and 0.3689 (2×)
  fluorescence polarization, Mean: 0.4153
[1]; [23]
  Fluorescence polarization, Replicate 1-3: 0.7131 and 0.7705 and 0.7541
  fluorescence polarization, Mean: 0.7459
[1]; [24]
  Fluorescence polarization, Replicate 1-3: 0.6393 and 0.6721 and 0.5902
  fluorescence polarization, Mean: 0.6339
[1]; [25]
  Fluorescence polarization, Replicate 1-3: 0.7951 and 0.7459 and 0.7705
  fluorescence polarization, Mean: 0.7705
[1]; [26]
  Fluorescence polarization, Replicate 1-3: 0.7623 and 0.7213 and 0.6639
  fluorescence polarization, Mean: 0.7158
[1]; [27]
  Fluorescence polarization, Replicate 1-3: 0.9016 and 0.7623 and 0.7787
  fluorescence polarization, Mean: 0.8142
[2]; ADP + Pi, protein 0.01 μM
  fluorescence polarization, Mean: 0.08197
[2]; ADP + Pi, protein 0.05 μM
  fluorescence polarization, Mean: 0.09836
[2]; ADP + Pi, protein 0.075 μM
  fluorescence polarization, Mean: 0.06831
[2]; ADP + Pi, protein 0.1 μM
  fluorescence polarization, Mean: 0.1776
[2]; ADP + Pi, protein 0.5 μM
  fluorescence polarization, Mean: 0.5956
[2]; ADP + Pi, protein 0.75 μM
  fluorescence polarization, Mean: 0.735
[2]; ADP + Pi, protein 1 μM
  fluorescence polarization, Mean: 0.6831
[2]; ADP + Pi, protein 5 μM
  fluorescence polarization, Mean: 0.9481
[2]; ADP + Pi, protein 7.5 μM
  fluorescence polarization, Mean: 0.8825
[2]; ADP + Pi, protein 10 μM
  fluorescence polarization, Mean: 0.9699
[2]; ADP + Pi, protein 25 μM
  fluorescence polarization, Mean: 1.044
[2]; ADP + Pi, protein 50 μM
  fluorescence polarization, Mean: 1.0929
[2]; AMP-PNP, protein 0.01 μM
  fluorescence polarization, Mean: 0.2213
[2]; AMP-PNP, protein 0.05 μM
  fluorescence polarization, Mean: 0.7268
[2]; AMP-PNP, protein 0.075 μM
  fluorescence polarization, Mean: 0.4973
[2]; AMP-PNP, protein 0.1 μM
  fluorescence polarization, Mean: 0.765
[2]; AMP-PNP, protein 0.5 μM
  fluorescence polarization, Mean: 1.016
[2]; AMP-PNP, protein 0.75 μM
  fluorescence polarization, Mean: 1.0082
[2]; AMP-PNP, protein 1 μM
  fluorescence polarization, Mean: 1.049
[2]; AMP-PNP, protein 5 μM
  fluorescence polarization, Mean: 1.046
[2]; AMP-PNP, protein 7.5 μM
  fluorescence polarization, Mean: 1.123
[2]; AMP-PNP, protein 10 μM
  fluorescence polarization, Mean: 1.156
[2]; AMP-PNP, protein 25 μM
  fluorescence polarization, Mean: 1.142
[2]; AMP-PNP, protein 50 μM
  fluorescence polarization, Mean: 1.15
[3]; ADP + Pi (1 mM each)
  Kd: 850 ± 120 nM
[3]; AMP-PNP 1 mM
  Kd: 370 ± 46 nM
[3]; [4]
  fluorescence polarization, Mean: 0.06011
  fluorescence polarization, replicates: -0.02732
[3]; [5]
  fluorescence polarization, Mean: 0.1202
  fluorescence polarization, replicates: 0.1284
[3]; [6]
  fluorescence polarization, Mean: 0.1339
  fluorescence polarization, replicates: 0.1284 and 0.1612 and 0.112
[3]; [7]
  fluorescence polarization, Mean: 0.1639
  fluorescence polarization, replicates: 0.2104 and 0.1284 and 0.153
[3]; [8]
  fluorescence polarization, Mean: 0.6885
  fluorescence polarization, replicates: 0.6858 and 0.5956
[3]; [9]
  fluorescence polarization, Mean: 0.6093
  fluorescence polarization, replicates: 0.5874 and 0.6038
[3]; [10]
  fluorescence polarization, Mean: 0.8743
  fluorescence polarization, replicates: 0.9071 and 0.9481
[3]; [11]
  fluorescence polarization, Mean: 1.648
  fluorescence polarization, replicates: 1.628 and 1.6612 and 1.653
[3]; [12]
  fluorescence polarization, Mean: 1.617
  fluorescence polarization, replicates: 1.6776 and 1.53 and 1.645
[3]; [13]
  fluorescence polarization, Mean: 1.686
  fluorescence polarization, replicates: 1.612 and 1.735 and 1.71
[3]; [14]
  fluorescence polarization, Mean: 1.735
  fluorescence polarization, replicates: 1.76 and 1.751 and 1.694
[3]; [15]
  fluorescence polarization, Mean: 1.7459
  fluorescence polarization, replicates: 1.735 and 1.76 and 1.743
[3]; [16]
  Fluorescence polarization, Replicate 1-3: 0.04372 and 0.1339 and -0.005464
  fluorescence polarization, Mean: 0.05738
[3]; [17]
  Fluorescence polarization, Replicate 1-3: 0.06831 and 0.1421 and -0.03005
  fluorescence polarization, Mean: 0.06011
[3]; [18]
  Fluorescence polarization, Replicate 1-3: 0.06831 and 0.1339 and 0.1503
  fluorescence polarization, Mean: 0.1175
[3]; [19]
  Fluorescence polarization, Replicate 1-3: 0.1667 and 0.0847 and 0.1995
  fluorescence polarization, Mean: 0.1503
[3]; [20]
  Fluorescence polarization, Replicate 1-3: 1.142 and 1.044 and 0.9536
[3]; [21]
  Fluorescence polarization, Replicate 1-3: 0.9454 and 1.044 and 0.9126
  fluorescence polarization, Mean: 0.9672
[3]; [22]
  Fluorescence polarization, Replicate 1-3: 1.175 and 1.167 and 1.109
[3]; [23]
  Fluorescence polarization, Replicate 1-3: 1.5847 and 1.5765 and 1.601
  fluorescence polarization, Mean: 1.587
[3]; [24]
  Fluorescence polarization, Replicate 1-3: 1.511 and 1.56 and 1.601
  fluorescence polarization, Mean: 1.557
[3]; [25]
  Fluorescence polarization, Replicate 1-3: 1.675 and 1.56 and 1.667
  fluorescence polarization, Mean: 1.634
[3]; [26]
  Fluorescence polarization, Replicate 1-3: 1.5847 and 1.699 and 1.626
  fluorescence polarization, Mean: 1.637
[3]; [27]
  Fluorescence polarization, Replicate 1-3: 1.65 and 1.626 and 1.691
  fluorescence polarization, Mean: 1.656
